Source: PubChem BioAssay AID1963448 (Molecular Pharmacology Branch, DTP, NCI, 2024)
pIC50: −log10 of the molar value. Values belong to the compound of their own block, whether it stands above or below them.

Test system: 616215-338-R-J1-PDC complex spheroid growth, % test/control
Test: Anticancer human tumor 616215-338-R-J1-PDC patient-derived colon adenocarcinoma cell line growth inhibition [Asc]
Conditions: for pIC50: curve of first compound; for viability, T/C: stronger effect = lower value
How it was run: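 Complex solid-tumor spheroids incorporating human endothelial and mesenchymal stem cells received single agents or combinations over half-log dilution ranges anchored to clinical Cmax.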

[1] = second compound 0.00316 µM, first compound 0.00316 µM
[2] = second compound 0.00316 µM, first compound 0.01 µM
[3] = second compound 0.00316 µM, first compound 0.0316 µM
[4] = second compound 0.00316 µM, first compound 0.1 µM
[5] = second compound 0.01 µM, first compound 0.00316 µM
[6] = second compound 0.01 µM, first compound 0.01 µM
[7] = second compound 0.01 µM, first compound 0.0316 µM
[8] = second compound 0.01 µM, first compound 0.1 µM
[9] = second compound 0.0316 µM, first compound 0.00316 µM
[10] = second compound 0.0316 µM, first compound 0.01 µM
[11] = second compound 0.0316 µM, first compound 0.0316 µM
[12] = second compound 0.0316 µM, first compound 0.1 µM
[13] = second compound 0.1 µM, first compound 0.00316 µM
[14] = second compound 0.1 µM, first compound 0.01 µM
[15] = second compound 0.1 µM, first compound 0.0316 µM
[16] = second compound 0.1 µM, first compound 0.1 µM
[17] = second compound 0.316 µM, first compound 0.00316 µM
[18] = second compound 0.316 µM, first compound 0.01 µM
[19] = second compound 0.316 µM, first compound 0.0316 µM
[20] = second compound 0.316 µM, first compound 0.1 µM
[21] = second compound 1 µM, first compound 0.00316 µM
[22] = second compound 1 µM, first compound 0.01 µM
[23] = second compound 1 µM, first compound 0.0316 µM
[24] = second compound 1 µM, first compound 0.1 µM
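Further: spheroids exposed to agents for seven days before readout.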
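Wherever viability, T/C is given: 100% = DMSO vehicle control viability.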

pIC50 (second compound 0.00316 µM): 7.27
pIC50 (second compound 0.01 µM): 7.26
pIC50 (second compound 0.0316 µM): 7.33
pIC50 (second compound 0.1 µM): 7.33
pIC50 (second compound 0.316 µM): 7.28
pIC50 (second compound 1 µM): 7.39
Compound: COc1c(OCCCN2CCOCC2)ccc2c3n(c(=NC(=O)c4cnc(N)nc4)nc12)CCN3 + CNC(C)C(=O)NC1CN(S(=O)(=O)c2cccc(S(=O)(=O)N3CCC4CCC(C(=O)NC(c5ccccc5)c5ccccc5)N4C(=O)C(NC(=O)C(C)NC)C3)c2)CCC2CCC(C(=O)NC(c3ccccc3)c3ccccc3)N2C1=O
viability, T/C [1]: 107%
viability, T/C [2]: 83.5%
viability, T/C [3]: 68.8%
viability, T/C [4]: 30.4%
viability, T/C (second compound 0.00316 µM, first compound 0.316 µM): 14.9%
viability, T/C (second compound 0.00316 µM, first compound 1 µM): 2.9%
viability, T/C [5]: 98.6%
viability, T/C [6]: 101%
viability, T/C [7]: 64%
viability, T/C [8]: 32.5%
viability, T/C (second compound 0.01 µM, first compound 0.316 µM): 9.38%
viability, T/C (second compound 0.01 µM, first compound 1 µM): 2.23%
viability, T/C [9]: 94.1%
viability, T/C [10]: 97.8%
viability, T/C [11]: 59.5%
viability, T/C [12]: 26.1%
viability, T/C (second compound 0.0316 µM, first compound 0.316 µM): 14.3%
viability, T/C (second compound 0.0316 µM, first compound 1 µM): 1.77%
viability, T/C [13]: 101%
viability, T/C [14]: 92.4%
viability, T/C [15]: 56.7%
viability, T/C [16]: 30.4%
viability, T/C (second compound 0.1 µM, first compound 0.316 µM): 14.1%
viability, T/C (second compound 0.1 µM, first compound 1 µM): 1.87%
viability, T/C [17]: 93.4%
viability, T/C [18]: 97.8%
viability, T/C [19]: 65.1%
viability, T/C [20]: 27.7%
viability, T/C (second compound 0.316 µM, first compound 0.316 µM): 15.3%
viability, T/C (second compound 0.316 µM, first compound 1 µM): 3.07%
viability, T/C [21]: 87.4%
viability, T/C [22]: 89.4%
viability, T/C [23]: 52.8%
viability, T/C [24]: 26.8%
viability, T/C (second compound 1 µM, first compound 0.316 µM): 16.8%
viability, T/C (second compound 1 µM, first compound 1 µM): 6.17%

pIC50 (second compound 0.00316 µM): < 6.52
pIC50 (second compound 0.01 µM): < 6.52
pIC50 (second compound 0.0316 µM): < 6.52
pIC50 (second compound 0.1 µM): < 6.52
pIC50 (second compound 0.316 µM): < 6.52
pIC50 (second compound 1 µM): 6.72
Compound: NC(=O)C(=Cn1cnc(-c2cc(C(F)(F)F)cc(C(F)(F)F)c2)n1)c1cncnc1 + CNC(C)C(=O)NC1CN(S(=O)(=O)c2cccc(S(=O)(=O)N3CCC4CCC(C(=O)NC(c5ccccc5)c5ccccc5)N4C(=O)C(NC(=O)C(C)NC)C3)c2)CCC2CCC(C(=O)NC(c3ccccc3)c3ccccc3)N2C1=O
viability, T/C (second compound 0.00316 µM, first compound 0.000949 µM): 104%
viability, T/C (second compound 0.00316 µM, first compound 0.003 µM): 105%
viability, T/C (second compound 0.00316 µM, first compound 0.00949 µM): 94.3%
viability, T/C (second compound 0.00316 µM, first compound 0.03 µM): 83.3%
viability, T/C (second compound 0.00316 µM, first compound 0.0949 µM): 73.9%
viability, T/C (second compound 0.00316 µM, first compound 0.3 µM): 53.2%
viability, T/C (second compound 0.01 µM, first compound 0.000949 µM): 107%
viability, T/C (second compound 0.01 µM, first compound 0.003 µM): 108%
viability, T/C (second compound 0.01 µM, first compound 0.00949 µM): 96.2%
viability, T/C (second compound 0.01 µM, first compound 0.03 µM): 72%
viability, T/C (second compound 0.01 µM, first compound 0.0949 µM): 76.2%
viability, T/C (second compound 0.01 µM, first compound 0.3 µM): 71.4%
viability, T/C (second compound 0.0316 µM, first compound 0.000949 µM): 115%
viability, T/C (second compound 0.0316 µM, first compound 0.003 µM): 108%
viability, T/C (second compound 0.0316 µM, first compound 0.00949 µM): 95.8%
viability, T/C (second compound 0.0316 µM, first compound 0.03 µM): 64.6%
viability, T/C (second compound 0.0316 µM, first compound 0.0949 µM): 78.4%
viability, T/C (second compound 0.0316 µM, first compound 0.3 µM): 54.7%
viability, T/C (second compound 0.1 µM, first compound 0.000949 µM): 117%
viability, T/C (second compound 0.1 µM, first compound 0.003 µM): 110%
viability, T/C (second compound 0.1 µM, first compound 0.00949 µM): 102%
viability, T/C (second compound 0.1 µM, first compound 0.03 µM): 68.5%
viability, T/C (second compound 0.1 µM, first compound 0.0949 µM): 70.5%
viability, T/C (second compound 0.1 µM, first compound 0.3 µM): 68.5%
viability, T/C (second compound 0.316 µM, first compound 0.000949 µM): 118%
viability, T/C (second compound 0.316 µM, first compound 0.003 µM): 118%
viability, T/C (second compound 0.316 µM, first compound 0.00949 µM): 105%
viability, T/C (second compound 0.316 µM, first compound 0.03 µM): 61.1%
viability, T/C (second compound 0.316 µM, first compound 0.0949 µM): 60.9%
viability, T/C (second compound 0.316 µM, first compound 0.3 µM): 67%
viability, T/C (second compound 1 µM, first compound 0.000949 µM): 112%
viability, T/C (second compound 1 µM, first compound 0.003 µM): 110%
viability, T/C (second compound 1 µM, first compound 0.00949 µM): 71.1%
viability, T/C (second compound 1 µM, first compound 0.03 µM): 88.2%
viability, T/C (second compound 1 µM, first compound 0.0949 µM): 59%
viability, T/C (second compound 1 µM, first compound 0.3 µM): 41.5%

pIC50 (second compound 0.00316 µM): < 7.00
pIC50 (second compound 0.01 µM): < 7.00
pIC50 (second compound 0.0316 µM): < 7.00
pIC50 (second compound 0.1 µM): < 7.00
pIC50 (second compound 0.316 µM): < 7.00
pIC50 (second compound 1 µM): < 7.00
Compound: NC1CCC(NC2CC2c2ccccc2)CC1 (stereo unspecified) + CNC(C)C(=O)NC1CN(S(=O)(=O)c2cccc(S(=O)(=O)N3CCC4CCC(C(=O)NC(c5ccccc5)c5ccccc5)N4C(=O)C(NC(=O)C(C)NC)C3)c2)CCC2CCC(C(=O)NC(c3ccccc3)c3ccccc3)N2C1=O
viability, T/C (second compound 0.00316 µM, first compound 0.000316 µM): 101%
viability, T/C (second compound 0.00316 µM, first compound 0.001 µM): 94.2%
viability, T/C [1]: 73.6%
viability, T/C [2]: 93.9%
viability, T/C [3]: 103%
viability, T/C [4]: 91%
viability, T/C (second compound 0.01 µM, first compound 0.000316 µM): 96.7%
viability, T/C (second compound 0.01 µM, first compound 0.001 µM): 93.9%
viability, T/C [5]: 95.7%
viability, T/C [6]: 100%
viability, T/C [7]: 95.2%
viability, T/C [8]: 98%
viability, T/C (second compound 0.0316 µM, first compound 0.000316 µM): 92%
viability, T/C (second compound 0.0316 µM, first compound 0.001 µM): 89.8%
viability, T/C [9]: 89.9%
viability, T/C [10]: 82.8%
viability, T/C [11]: 96.1%
viability, T/C [12]: 95.3%
viability, T/C (second compound 0.1 µM, first compound 0.000316 µM): 100%
viability, T/C (second compound 0.1 µM, first compound 0.001 µM): 87%
viability, T/C [13]: 92.2%
viability, T/C [14]: 99%
viability, T/C [15]: 98.7%
viability, T/C [16]: 89.8%
viability, T/C (second compound 0.316 µM, first compound 0.000316 µM): 103%
viability, T/C (second compound 0.316 µM, first compound 0.001 µM): 94.2%
viability, T/C [17]: 88.4%
viability, T/C [18]: 97.5%
viability, T/C [19]: 102%
viability, T/C [20]: 90.7%
viability, T/C (second compound 1 µM, first compound 0.000316 µM): 103%
viability, T/C (second compound 1 µM, first compound 0.001 µM): 91%
viability, T/C [21]: 95.4%
viability, T/C [22]: 72.9%
viability, T/C [23]: 98.5%
viability, T/C [24]: 84.7%
